The values below come from patent publication EP3782997A1, “FUSED PYRIMIDINE COMPOUNDS AND PHARMACEUTICAL COMPOSITIONS THEREOF FOR THE TREATMENT OF FIBROTIC DISEASES” (Galapagos N.V., priority 2019, dated 2021).

Some results are limits rather than exact numbers.

The target in this assay is hENPP2 (Homo sapiens, UniProt Q13822). Put plainly: Human ENPP2 (hENPP2) biochemical assay using LPC as substrate. Particulars: 150 µM LPC (palmitoyl 16:0), 37°C for 30 min. The essentials: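 Enzyme at 1 or 3 µg/mL final in Tris-HCl pH 8.5, NaCl, KCl, CaCl2, fatty-acid-free BSA; reaction started with 150 µM LPC 16:0 (as added), 30 min at 37°C. Released choline developed with choline oxidase/peroxidase/TOOS/4-aminoantipyrine plus EGTA stop, read at 555 nm after 30 min; 1/3 dilutions from 50 µM give IC50.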
The IC50 is the concentration needed to halve the response being measured. The low end stands for greater potency in that assay, the high end for weaker potency in that assay. For the compound `C[C@@H]1C[C@@H](N2Cc3cnc(Nc4ccc(F)cc4)nc3C2)CCN1C(=O)c1ccnc(NS(C)(=O)=O)c1` [compound 192, N-[4-[(2R,4S)-4-[2-(4-fluoroanilino)-5,7-dihydropyrrolo[3,4-d]pyrimidin-6-yl]-2-methyl-piperidine-1-carbonyl]-2-pyridyl]methanesulfonamide], the IC50 is greater than 1000 nM.

The compound `COc1cccc(Nc2ncc3c(n2)CN([C@H]2CCN(C(=O)c4ccnc(NS(C)(=O)=O)c4)[C@H](C)C2)C3)c1` [compound 193, N-[4-[(2R,4S)-4-[2-(3-methoxyanilino)-5,7-dihydropyrrolo[3,4-d]pyrimidin-6-yl]-2-methyl-piperidine-1-carbonyl]-2-pyridyl]methanesulfonamide] came in with an IC50 greater than 1000 nM.

`Cc1cc(C)cc(Nc2ncc3c(n2)CN(C2(C)CCN(C(=O)c4cc5nn[nH]c5cc4F)CC2)C3)c1` [compound 194, [4-[2-(3,5-dimethylanilino)-5,7-dihydropyrrolo[3,4-d]pyrimidin-6-yl]-4-methyl-1-piperidyl]-(6-fluoro-1H-benzotriazol-5-yl)methanone] returned a half-maximal inhibitory concentration (IC50) greater than 1000 nM.

In turn, `C[C@@H]1C[C@H](N2Cc3cnc(Nc4ccc(S(F)(F)(F)(F)F)cc4)nc3C2)CCN1C(=O)c1cc2nn[nH]c2cc1F` [compound 195, (6-fluoro-1H-benzotriazol-5-yl)-[(2R,4R)-2-methyl-4-[2-[4-(pentafluoro-λ^6-sulfanyl)anilino]-5,7-dihydropyrrolo[3,4-d]pyrimidin-6-yl]-1-piperidyl]methanone] had an IC50 of 0.01 to 100 nM.

As for `C[C@@H]1C[C@@H](N2Cc3cnc(Nc4ccc(S(F)(F)(F)(F)F)cc4)nc3C2)CCN1C(=O)c1cc2nn[nH]c2cc1F` [compound 196, (6-fluoro-1H-benzotriazol-5-yl)-[(2R,4S)-2-methyl-4-[2-[4-(pentafluoro-λ^6-sulfanyl)anilino] -5,7-dihydropyrrolo[3,4-d]pyrimidin-6-yl]-1-piperidyl]methanone], the concentration for half-maximal inhibition (IC50) is 0.01 to 100 nM.

As to `COc1cc(F)cc(Nc2ncc3c(n2)CN([C@@H]2CCN(C(=O)c4cc5nn[nH]c5cc4F)[C@H](C)C2)C3)c1` [compound 197, (6-fluoro-1H-benzotriazol-5-yl)-[(2R,4R)-4-[2-(3-fluoro-5-methoxy-anilino)-5,7-dihydropyrrolo[3,4-d]pyrimidin-6-yl]-2-methyl-1-piperidyl] methanone], the IC50 lay in the range of 0.01 to 100 nM.

In turn, `Cc1cc(C)cc(Nc2ncc3c(n2)CN([C@@H]2CCN(C(=O)c4ccnc(N)c4)[C@H](C)C2)C3)c1` [compound 198, (2-amino-4-pyridyl)-[(2R,4R)-4-[2-(3,5-dimethylanilino)-5,7-dihydropyrrolo[3,4-d]pyrimidin-6-yl]-2-methyl-1-piperidyl]methanone] returned a half-inhibitory concentration (IC50) greater than 1000 nM.

Turning to `Cc1cc(C)cc(Nc2ncc3c(n2)CCN(C2CCN(C(=O)C4CCN(c5cc6nn[nH]c6cc5C)CC4)CC2)C3)c1` [compound 199, [4-[2-(3,5-dimethylanilino)-7,8-dihydro-5H-pyrido[4,3-d]pyrimidin-6-yl]-1-piperidyl]-[1-(6-methyl-1H-benzotriazol-5-yl)-4-piperidyl]methanone], the 50% inhibitory concentration (IC50) was greater than 1000 nM.

For `COc1cc(Nc2ncc3c(n2)CN([C@@H]2CCN(C(=O)c4ccnc(NS(C)(=O)=O)c4)[C@H](C)C2)C3)cc(OC)c1` [compound 200, N-[4-[(2R,4R)-4-[2-(3,5-dimethoxyanilino)-5,7-dihydropyrrolo[3,4-d]pyrimidin-6-yl]-2-methyl-piperidine-1-carbonyl]-2-pyridyl]methanesulfonamide], the concentration for half-maximal inhibition (IC50) lay in the range of 0.01 to 100 nM.

With `CS(=O)(=O)Nc1cc(C(=O)N2CCC(N3Cc4cnc(Nc5ccc(C(F)(F)F)cc5)nc4C3)CC2)ccn1` [compound 201, N-[4-[4-[2-[4-(trifluoromethyl)anilino]-5,7-dihydropyrrolo[3,4-d]pyrimidin-6-yl]piperidine-1-carbonyl]-2-pyridyl]methanesulfonamide], the half-maximal inhibitory concentration (IC50) lay in the range of 0.01 to 100 nM.

The compound `Cc1cc(C)cc(Nc2ncc3c(n2)CN(C2CCN(C(=O)c4ccnc(NS(C)(=O)=O)c4)CC2)C3)c1` [compound 202, N-[4-[4-[2-(3,5-dimethylanilino)-5,7-dihydropyrrolo[3,4-d]pyrimidin-6-yl]piperidine-1-carbonyl]-2-pyridyl]methanesulfonamide] showed a concentration for half-maximal inhibition (IC50) of 0.01 to 100 nM.

For `Cc1cccc(Nc2ncc3c(n2)CN([C@@H]2CCN(C(=O)c4ccnc(NS(C)(=O)=O)c4)[C@H](C)C2)C3)c1` [compound 203, N-[4-[(2R,4R)-2-methyl-4-[2-(3-methylanilino)-5,7-dihydropyrrolo[3,4-d]pyrimidin-6-yl]piperidine-1-carbonyl]-2-pyridyl]methanesulfonamide], the IC50 fell in the range of 0.01 to 100 nM.

Consider `COc1cc(F)cc(Nc2ncc3c(n2)CN([C@@H]2CCN(C(=O)c4ccnc(NS(C)(=O)=O)c4)[C@H](C)C2)C3)c1` [compound 204, N-[4-[(2R,4R)-4-[2-(3-fluoro-5-methoxy-anilino)-5,7-dihydropyrrolo[3,4-d]pyrimidin-6-yl] -2-methyl-piperidine-1-carbonyl]-2-pyridyl]methanesulfonamide], for which the half-inhibitory concentration (IC50) lay in the range of 100 to 500 nM.

For `C[C@@H]1C[C@H](N2Cc3cnc(Nc4ccc(OC(F)(F)F)cc4)nc3C2)CCN1C(=O)c1ccnc(NS(C)(=O)=O)c1` [compound 205, N-[4-[(2R,4R)-2-methyl-4-[2-[4-(trifluoromethoxy)anilino]-5,7-dihydropyrrolo[3,4-d]pyrimidin-6-yl]piperidine-1-carbonyl]-2-pyridyl]methanesulfonamide], the IC50 was 0.01 to 100 nM.

With `Cc1cc(C)cc(Nc2ncc3c(n2)CN([C@@H]2CCN(C(=O)c4cccc(NS(C)(=O)=O)c4)[C@H](C)C2)C3)c1` [compound 206, N-[3-[(2R,4R)-4-[2-(3,5-dimethylanilino)-5,7-dihydropyrrolo[3,4-d]pyrimidin-6-yl]-2-methyl-piperidine-1-carbonyl]phenyl]methanesulfonamide], the IC50 was greater than 1000 nM.

Take `Cc1cc(Nc2ncc3c(n2)CN([C@@H]2CCN(C(=O)c4ccnc(NS(C)(=O)=O)c4)[C@H](C)C2)C3)ccc1F` [compound 207, N-[4-[(2R,4R)-4-[2-(4-fluoro-3-methyl-anilino)-5,7-dihydropyrrolo[3,4-d]pyrimidin-6-yl]-2-methyl-piperidine-1-carbonyl]-2-pyridyl]methanesulfonamide]: the concentration for half-maximal inhibition (IC50) is 0.01 to 100 nM.

In turn, `Cc1cc(C)cc(Nc2ncc3c(n2)CN([C@@H]2CCN(C(=O)c4cc(NS(C)(=O)=O)ncc4F)[C@H](C)C2)C3)c1` [compound 208, N-[4-[(2R,4R)-4-[2-(3,5-dimethylanilino)-5,7-dihydropyrrolo[3,4-d]pyrimidin-6-yl]-2-methyl-piperidine-1-carbonyl]-5-fluoro-2-pyridyl]methanesulfonamide] registered an IC50 of 0.01 to 100 nM.

`CC(=O)Nc1cc(C(=O)N2CC[C@@H](N3Cc4cnc(Nc5cc(C)cc(C)c5)nc4C3)C[C@H]2C)ccn1` [compound 209, N-[4-[(2R,4R)-4-[2-(3,5-dimethylanilino)-5,7-dihydropyrrolo[3,4-d]pyrimidin-6-yl]-2-methyl-piperidine-1-carbonyl]-2-pyridyl]acetamide]: the IC50 was 500 to 1000 nM.

`CCS(=O)(=O)Nc1cc(C(=O)N2CC[C@@H](N3Cc4cnc(Nc5cc(C)cc(C)c5)nc4C3)C[C@H]2C)ccn1` [compound 210, N-[4-[(2R,4R)-4-[2-(3,5-dimethylanilino)-5,7-dihydropyrrolo[3,4-d]pyrimidin-6-yl]-2-methyl-piperidine-1-carbonyl]-2-pyridyl]ethanesulfonamide] registered a concentration for half-maximal inhibition (IC50) of 0.01 to 100 nM.
